{"source": "ChEMBL document CHEMBL4152208", "about": "“Synthesis and structure-activity relationships of quinolinone and quinoline-based P2X7 receptor antagonists and their anti-sphere formation activities in glioblastoma cells” (Eur J Med Chem, 2018)", "key": {"Homo sapiens [1]": {"organism": "Homo sapiens", "experiment": "Antiproliferative activity against human TS15-88 cells at 50 uM after 24 hrs by MTS assay", "format": "functional, cell-based"}, "[2]": {"target": "T1, P2X purinoceptor 7 (Homo sapiens) (UniProt Q99572)", "T1 sequence (whole entry)": "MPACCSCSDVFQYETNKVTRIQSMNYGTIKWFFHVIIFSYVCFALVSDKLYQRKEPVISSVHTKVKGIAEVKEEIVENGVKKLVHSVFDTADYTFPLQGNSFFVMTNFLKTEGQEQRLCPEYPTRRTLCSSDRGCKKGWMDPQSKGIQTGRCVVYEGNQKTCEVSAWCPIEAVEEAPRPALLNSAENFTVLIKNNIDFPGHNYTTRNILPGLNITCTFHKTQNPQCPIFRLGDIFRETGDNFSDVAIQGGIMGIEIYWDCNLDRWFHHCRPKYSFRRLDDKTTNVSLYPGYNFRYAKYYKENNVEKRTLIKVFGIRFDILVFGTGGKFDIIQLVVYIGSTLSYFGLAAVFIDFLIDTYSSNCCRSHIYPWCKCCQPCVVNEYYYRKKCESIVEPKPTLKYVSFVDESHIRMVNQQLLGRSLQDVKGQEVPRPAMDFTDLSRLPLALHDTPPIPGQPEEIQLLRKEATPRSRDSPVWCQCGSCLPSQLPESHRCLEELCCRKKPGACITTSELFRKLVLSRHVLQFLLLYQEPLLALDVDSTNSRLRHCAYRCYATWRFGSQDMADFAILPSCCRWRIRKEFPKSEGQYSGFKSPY", "experiment": "Antagonist activity at human P2X7 receptor expressed in HEK293 cells assessed as inhibition of BzATP-induced EtBr uptake at 1 uM after 2 hrs by fluorescence assay relative to control", "format": "cell-based"}, "[3]": {"experiment": "Inhibition of neurosphere formation in human TS15-88 cells assessed as decrease in sphere size at 50 uM after 5 days by microscopic analysis relative to control", "format": "functional", "conditions": "120 h"}, "[4]": {"target": "T2, P2X purinoceptor 4 (Homo sapiens) (UniProt Q99571)", "T2 sequence (whole entry)": "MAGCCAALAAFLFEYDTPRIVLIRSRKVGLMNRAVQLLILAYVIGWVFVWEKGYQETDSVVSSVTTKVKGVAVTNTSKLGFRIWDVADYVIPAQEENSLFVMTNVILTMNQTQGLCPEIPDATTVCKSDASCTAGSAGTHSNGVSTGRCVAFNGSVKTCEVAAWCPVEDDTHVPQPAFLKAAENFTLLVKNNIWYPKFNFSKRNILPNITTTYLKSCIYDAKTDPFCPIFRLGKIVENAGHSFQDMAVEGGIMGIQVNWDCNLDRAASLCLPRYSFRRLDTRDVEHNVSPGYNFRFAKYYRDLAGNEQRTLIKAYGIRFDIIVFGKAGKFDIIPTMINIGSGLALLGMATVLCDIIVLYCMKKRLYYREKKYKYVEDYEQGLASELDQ", "experiment": "Antagonist activity at human P2X4 receptor expressed in 1321N1 cells assessed as inhibition of ATP-induced calcium flux at 1 uM measured for 30 secs at 0.4 secs intervals by Flou-4-AM dye based fluorescence assay relative to control", "format": "cell-based"}, "Homo sapiens [5]": {"organism": "Homo sapiens", "experiment": "Antiproliferative activity against human TS15-88 cells at 50 uM after 72 hrs by MTS assay", "format": "functional, cell-based"}, "[6]": {"experiment": "Cytotoxicity against HEK293 cells expressing human P2X7 receptor assessed as cell survival at 10 uM by MTT assay relative to control", "format": "cell-based", "conditions": "read-out: Survival"}, "[7]": {"experiment": "Increase in CD133 mRNA expression in human TS15-88 cells after 72 hrs by qRT-PCR analysis relative to control", "format": "functional"}, "[8]": {"target": "T3, P2X purinoceptor 1 (Homo sapiens) (UniProt P51575)", "T3 sequence (whole entry)": "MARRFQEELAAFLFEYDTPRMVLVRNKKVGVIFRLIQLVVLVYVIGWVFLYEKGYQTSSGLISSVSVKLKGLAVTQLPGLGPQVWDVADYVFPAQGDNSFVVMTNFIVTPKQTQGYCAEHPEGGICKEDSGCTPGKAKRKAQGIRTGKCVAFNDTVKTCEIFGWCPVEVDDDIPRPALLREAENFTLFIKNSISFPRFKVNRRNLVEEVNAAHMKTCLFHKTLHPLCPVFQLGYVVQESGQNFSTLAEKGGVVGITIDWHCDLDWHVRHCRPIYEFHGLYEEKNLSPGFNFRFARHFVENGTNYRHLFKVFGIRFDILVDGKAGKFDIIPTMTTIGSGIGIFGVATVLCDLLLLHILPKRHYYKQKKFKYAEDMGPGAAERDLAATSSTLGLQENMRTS", "experiment": "Antagonist activity at human P2X1 receptor expressed in 1321N1 cells assessed as inhibition of ATP-induced calcium flux at 1 uM measured for 30 secs at 0.4 secs intervals by Flou-4-AM dye based fluorescence assay relative to control", "format": "cell-based"}, "[9]": {"experiment": "Antiproliferative activity against human TS15-88 cells after 24 to 72 hrs by MTS assay", "format": "functional, cell-based"}}, "note": "Activity calls are given as the source filed them. The calls are words filed in the database; no cut-off is given here."}
{"smiles": "O=C(CC12CC3CC(CC(C3)C1)C2)Nc1cccc2nc(Cl)ccc12", "values": [{"measurement": "Activity", "setting": "Homo sapiens [1]", "result": "Active"}, {"measurement": "inhibition", "setting": "[2]", "result": 89, "unit": "%"}, {"measurement": "inhibition at 50 µM", "setting": "[3]", "result": "> 50", "unit": "%"}, {"measurement": "inhibition", "setting": "[4]", "result": 4, "unit": "%"}, {"measurement": "Activity", "setting": "Homo sapiens [5]", "result": "Active"}, {"measurement": "viability at 10 µM", "setting": "[6]", "result": 98, "unit": "%"}, {"measurement": "Activity", "setting": "[7]", "result": 30, "unit": "%"}, {"measurement": "inhibition", "setting": "[8]", "result": 13, "unit": "%"}, {"measurement": "IC50", "setting": "[9]", "result": 40, "unit": "µM"}]}
